Columns and labels:
Pyricularia grisea [1] = assay: Antifungal activity against Magnaporthe grisea infected rice plant after 5 days relative to control; assay type: functional; design: concentration or dose not given beside the values
Pyricularia grisea [2] = assay: Antifungal activity against Magnaporthe grisea infected rice plant assessed as logarithm of fungal control value at 100 ppm after 5 days; assay type: functional

CN(C(=O)Cc1cs/c(=N\c2ccc(Br)cc2)n1C)c1ccccc1 was tested, and the Activity (Pyricularia grisea [1]) was 0%.
Molecule CN(C(=O)Cc1cs/c(=N\c2cc(Cl)cc(Cl)c2)n1C)c1ccccc1 has an Activity (Pyricularia grisea [1]) of 8%.
For CN(C(=O)Cc1cs/c(=N\c2ccc(F)cc2F)n1C)c1ccccc1, the Activity (Pyricularia grisea [1]) was 0%.
Molecule COc1ccc(/N=c2\scc(CC(=O)Nc3ccc(Cl)cc3)n2C)cc1 has an Activity (Pyricularia grisea [1]) of 83%.
In the case of CCc1ccc(NC(=O)Cc2cs/c(=N\c3ccc(C#N)cc3)n2CCO)cc1, the Activity (Pyricularia grisea [1]) is reported as 86%.
For CCc1ccc(NC(=O)Cc2cs/c(=N\c3ccc(C#N)cc3)n2C)cc1, the Activity (Pyricularia grisea [1]) was 93%.
Work on COc1ccc(NC(=O)Cc2cs/c(=N\c3ccc([N+](=O)[O-])cc3)n2CCO)cc1 yielded an Activity (Pyricularia grisea [1]) of 20%.
Molecule COc1ccc(NC(=O)Cc2cs/c(=N\c3ccc([N+](=O)[O-])cc3)n2C)cc1 has an Activity (Pyricularia grisea [1]) of 99%.
With Cn1c(CC(=O)Nc2ccc(Br)cc2)cs/c1=N\c1ccc(Oc2ccccc2)cc1 the Activity (Pyricularia grisea [1]) was 98%.
O=C(Cc1cs/c(=N\c2ccc(Oc3ccccc3)cc2)n1C1CC1)Nc1ccc(Br)cc1 was tested, and the Activity (Pyricularia grisea [1]) was 16%.
CN(C(=O)Cc1cs/c(=N\c2ccc(F)cc2)n1C)c1ccccc1 showed an Activity (Pyricularia grisea [1]) of 0%.
CCc1ccc(NC(=O)Cc2cs/c(=N\c3ccc(OC)cc3)n2CCO)cc1 gave an Activity (Pyricularia grisea [1]) of 75%.
CN(C(=O)Cc1cs/c(=N\c2ccc(Oc3ccccc3)cc2)n1C)c1ccccc1 showed an Activity (Pyricularia grisea [1]) of 0%.
With CN(C(=O)Cc1cs/c(=N\c2ccc(C#N)cc2)n1C)c1ccccc1 the Activity (Pyricularia grisea [1]) was 25%.
CCc1ccc(NC(=O)Cc2cs/c(=N\c3ccc(OC)cc3)n2C)cc1 was tested, and the Activity (Pyricularia grisea [1]) was 98% and the Activity (Pyricularia grisea [2]) was 1.99.
CN(C(=O)Cc1cs/c(=N\c2ccc(C(F)(F)F)cc2)n1C)c1ccccc1 showed an Activity (Pyricularia grisea [1]) of 0%.
COc1ccc(/N=c2\scc(CC(=O)Nc3ccc(Cl)cc3)n2CCO)cc1 showed an Activity (Pyricularia grisea [1]) of 10%.
Work on CN(C(=O)Cc1cs/c(=N\c2cccc(F)c2)n1C)c1ccccc1 yielded an Activity (Pyricularia grisea [1]) of 0%.
